This test relates to β-catenin-TCF-mediated reporter transcription activity in Colo 205 cells. Briefly: Colo 205 reporter assay (TCF/LEF luciferase). The test is classed as cell-based. The note with it: Colo 205 TCF/LEF luciferase reporter, read-out: TCF reporter Colo205 IC50. In short, it runs like this: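 Luciferase signal from a TCF/LEF-driven reporter, stably integrated in Colo 205 colon cancer cells, was measured 5 h after compound addition.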
(In general: In a reporter assay the amount or activity of a reporter protein is the signal.)

Where [1] appears, read: Homo sapiens, COLO 205, 5 h, five hours after addition of compound.
The mark [2] stands for this setting: Homo sapiens, COLO 205, 5 h, R-isomer at C2 (corresponding to C2 S-isomer), 5 h.

Where two headings read alike, the source gives them in different places. Some results are limits rather than exact numbers.

What is called IC50 is the concentration needed to halve the response being measured.

Turning to `C#Cc1cccc(OC[C@H]2C[C@@H](Nc3nc(C)c4c(n3)N(C)[C@@H](C)C(=O)N4)C2)c1` [Compound 283, (7S)-2-((cis-3-((3-ethynylphenoxy)methyl)cyclobutyl)amino)-4,7,8-trimethyl-7,8-dihydropteridin-6(5H)-one], the IC50 under setting [1] is less than 300 nM.

Turning to `COCC1(C)C(=O)Nc2c(C)nc(N[C@H]3C[C@H](Oc4cc(F)c(F)c(F)c4)C3)nc2N1C` (relative stereo) [Compound 719, 7-(methoxymethyl)-4,7,8-trimethyl-2-((trans-3-(3,4,5-trifluorophenoxy)cyclobutyl)amino)-7,8-dihydropteridin-6(5H)-one], the concentration for half-maximal inhibition (IC50) under setting [1] is less than 300 nM.

Take `Cc1nc(NCc2cnn(Cc3ccc(Cl)nc3)c2)nc2c1NC(=O)[C@H](C)N2C` [Compound 194, (7S)-2-(((1-((6-chloropyridin-3-yl)methyl)-1H-pyrazol-4-yl)methyl)amino)-4,7,8-trimethyl-7,8-dihydropteridin-6(5H)-one]: the IC50 under setting [1] is less than 300 nM.

For the compound `Cc1nc(NCc2cnn(Cc3ccc(C(F)(F)F)nc3)c2)nc2c1NC(=O)C1(CC1)N2C` [Compound 239, 4′,8′-dimethyl-2′-(((1-((6-(trifluoromethyl)pyridin-3-yl)methyl)-1H-pyrazol-4-yl)methyl)amino)-5′,8′-dihydro-6′H-spiro[cyclopropane-1,7′-pteridin]-6′-one], the IC50 under setting [1] is less than 300 nM.

Consider `Cc1nc(N[C@@H]2CC[C@H](Nc3cnc(C(F)(F)F)cn3)C2)nc2c1NC(=O)[C@H](C)N2C` [Compound 737, (S)-4,7,8-trimethyl-2-(((1R,3S)-3-((5-(trifluoromethyl)pyrazin-2-yl)amino)cyclopentyl)amino)-7,8-dihydropteridin-6(5H)-one], for which, under setting [1], the IC50 was 1000 to 5000 nM.

For the compound `C[C@H]1C(=O)N(C)c2cnc(NCc3cnn(Cc4ccc(F)cc4)c3)nc2N1C` [Compound 27, (7S)-2-(((1-(4-fluorobenzyl)-1H-pyrazol-4-yl)methyl)amino)-5,7,8-trimethyl-7,8-dihydropteridin-6(5H)-one], the IC50 under setting [1] was in the range of 300 to 1000 nM.

Consider `C=C(C)c1nc(C(F)(F)F)ccc1Cn1cc(CNc2nc(C)c3c(n2)N(C)[C@@H](C)C(=O)N3)cn1` [Compound 387, (7S)-4,7,8-Trimethyl-2-(((1-((2-(prop-1-en-2-yl)-6-(trifluoromethyl)pyridin-3-yl)methyl)-1H-pyrazol-4-yl)methyl)amino)-7,8-dihydropteridin-6(5H)-one], for which the IC50 under setting [1] is less than 300 nM.

With `Cc1nc(NCc2cnn([C@@H](C)Cc3ccccc3)c2)nc2c1NC(=O)[C@H](C)N2C` [Compound 102, (7S)-4,7,8-trimethyl-2-(((1-((S)-1-phenylpropan-2-yl)-1H-pyrazol-4-yl)methyl)amino)-7,8-dihydropteridin-6(5H)-one], the IC50 under setting [1] lay within 1000 to 5000 nM.

For `COCC1(C)C(=O)Nc2c(C)nc(N[C@H]3C[C@H](Oc4cc(F)c(F)c(F)c4)C3)nc2N1C` (relative stereo) [Compound 720, 7-(methoxymethyl)-4,7,8-trimethyl-2-((trans-3-(3,4,5-trifluorophenoxy)cyclobutyl)amino)-7,8-dihydropteridin-6(5H)-one], the IC50 (five hours after addition of compound) fell in the range of 300 to 1000 nM.

On to `CCN1C(=O)[C@@H](C)N(C(C)C)c2nc(NCc3cnn(Cc4ccc(F)cc4)c3)ncc21` [Compound I-1144], for which, under setting [2], the IC50 was in the range of 300 to 1000 nM.

For `Cc1nc(NCc2cnn(CCCc3ccc(F)cc3)c2)nc2c1NC(=O)[C@H](C)N2C` [Compound 104, (7S)-2-(((1-(3-(4-fluorophenyl)propyl)-1H-pyrazol-4-yl)methyl)amino)-4,7,8-trimethyl-7,8-dihydropteridin-6(5H)-one], the IC50 under setting [1] is less than 300 nM.

Regarding `Cc1nc(NCc2cnn(Cc3ccccc3C(F)(F)F)c2)nc2c1NC(=O)[C@H](C)N2C` [Compound 68, (7S)-4,7,8-trimethyl-2-(((1-(2-(trifluoromethyl)benzyl)-1H-pyrazol-4-yl)methyl)amino)-7,8-dihydropteridin-6(5H)-one], the IC50 under setting [1] was less than 300 nM.

Regarding `Cc1nc(NCc2cnn(Cc3ccc(F)cc3F)c2)nc2c1N(C)C(=O)[C@H](C)N2C` [Compound 29, (7S)-2-(((1-(2,4-difluorobenzyl)-1H-pyrazol-4-yl)methyl)amino)-4,5,7,8-tetramethyl-7,8-dihydropteridin-6(5H)-one], under setting [1], the IC50 was less than 300 nM.

As to `Cc1nc(NC2CN(C(=O)c3cc(C(F)(F)F)nn3C)C2)nc2c1NC(=O)[C@H](C(C)C)N2C` [Compound 596, (S)-7-isopropyl-4,8-dimethyl-2-((1-(1-methyl-3-(trifluoromethyl)-1H-pyrazole-5-carbonyl)azetidin-3-yl)amino)-7,8-dihydropteridin-6(5H)-one], the IC50 under setting [1] was less than 300 nM.

`Cc1nc(NC2CN(C(=O)c3ncccn3)C2)nc2c1NC(=O)[C@H](C(C)C)N2C` [Compound 640, (S)-7-isopropyl-4,8-dimethyl-2-((1-(pyrimidine-2-carbonyl)azetidin-3-yl)amino)-7,8-dihydropteridin-6(5H)-one]: the IC50 under setting [1] was no less than 5000 nM.

Consider `Cc1nc(N[C@H]2C[C@H](NC(=O)Nc3ccc(F)cc3)C2)nc2c1NC(=O)[C@H](C)N2C` [Compound 459, 1-(4-fluorophenyl)-3-(trans-3-(((S)-4,7,8-trimethyl-6-oxo-5,6,7,8-tetrahydropteridin-2-yl)amino)cyclobutyl)urea], for which the IC50 under setting [1] is no less than 5000 nM.

Turning to `Cc1nc(NCc2cnn([C@H]3CCN(c4ccc(F)cc4)C3)c2)nc2c1NC(=O)[C@H](C)N2C` [Compound 171, (7S)-2-(((1-((S)-1-(4-fluorophenyl)pyrrolidin-3-yl)-1H-pyrazol-4-yl)methyl)amino)-4,7,8-trimethyl-7,8-dihydropteridin-6(5H)-one], the IC50 under setting [1] was less than 300 nM.

As for `Cc1nc(N[C@H]2C[C@@H](CNc3cnc(C(F)(F)F)cn3)C2)nc2c1NC(=O)[C@H](C)N2C` [Compound 714, (S)-4,7,8-trimethyl-2-((cis-3-(((5-(trifluoromethyl)pyrazin-2-yl)amino)methyl)cyclobutyl)amino)-7,8-dihydropteridin-6(5H)-one], the IC50 under setting [1] is less than 300 nM.

Regarding `CCC[C@@H]1C(=O)N(C)c2cnc(NCc3cnn(Cc4cc(F)c(F)c(F)c4)c3)nc2N1C` [Compound I-1348], the IC50 under setting [2] is less than 300 nM.

For the compound `C[C@H]1C(=O)Nc2cnc(NCc3cnn(Cc4ccc(F)cc4)c3)nc2N1C` [Compound 41, (7S)-2-(((1-(4-fluorobenzyl)-1H-pyrazol-4-yl)methyl)amino)-7,8-dimethyl-7,8-dihydropteridin-6(5H)-one], the IC50 under setting [1] lay within 300 to 1000 nM.

On to `Cc1nc(N[C@H]2C[C@@H](N(C)c3cnc(C(F)(F)F)cn3)C2)nc2c1NC(=O)[C@H](C(C)C)N2C` [Compound 652, (S)-7-isopropyl-4,8-dimethyl-2-((cis-3-(methyl(5-(trifluoromethyl)pyrazin-2-yl)amino)cyclobutyl)amino)-7,8-dihydropteridin-6(5H)-one], for which the IC50 under setting [1] is 300 to 1000 nM.

Take `Cc1nc(NCc2cnn([C@H]3C[C@H]3c3ccc(F)cc3)c2)nc2c1N(C)C(=O)[C@H](C)N2C` [Compound 153, (7S)-2-(((1-((1S,2S)-2-(4-fluorophenyl)cyclopropyl)-1H-pyrazol-4-yl)methyl)amino)-4,5,7,8-tetramethyl-7,8-dihydropteridin-6(5H)-one]: under setting [1], the IC50 is less than 300 nM.

Take `Cc1nc(NCc2cnn([C@@H](C)c3ccc(F)cc3)c2)nc2c1NC(=O)[C@H](C)N2C` [Compound 71, (7S)-2-(((1-((S)-1-(4-fluorophenyl)ethyl)-1H-pyrazol-4-yl)methyl)amino)-4,7,8-trimethyl-7,8-dihydropteridin-6(5H)-one]: the IC50 under setting [1] was 300 to 1000 nM.

These data come from US20230312587A1, “PTERIDINONE COMPOUNDS AND USES THEREOF” (Vertex Pharmaceutical Incorporated, priority 2018, published 2023).
